Test results as given in patent US4950775A, “Antihypercholesterolemic compounds and synthesis thereof” (University of California, priority 1985, dated 1990).

Experiments:
[1] = test system: biosynthesis of cholesterol; details: background; cited from earlier work
HMG CoA reductase [2] = details: background, U.S. Pat. Nos. 4,049,495, 4,137,332, 3,983,140; cited from earlier work
HMG CoA reductase [3] = biological target: T1, HMG CoA reductase (Rattus norvegicus, UniProt P51639); assay: Inhibition of HMG CoA reductase catalysis in rat liver microsomes (radioactive assay of mevalonate production); assay type: biochemical; details: for IC50: pH 6.8, 37° C., 15-min. incubation, four concentrations in triplicate, 14C-HMG CoA substrate
T1 construct: measured with rat liver microsomes; from tissue; host or cells: rat liver microsomes
T1 sequence (P51639 1-887): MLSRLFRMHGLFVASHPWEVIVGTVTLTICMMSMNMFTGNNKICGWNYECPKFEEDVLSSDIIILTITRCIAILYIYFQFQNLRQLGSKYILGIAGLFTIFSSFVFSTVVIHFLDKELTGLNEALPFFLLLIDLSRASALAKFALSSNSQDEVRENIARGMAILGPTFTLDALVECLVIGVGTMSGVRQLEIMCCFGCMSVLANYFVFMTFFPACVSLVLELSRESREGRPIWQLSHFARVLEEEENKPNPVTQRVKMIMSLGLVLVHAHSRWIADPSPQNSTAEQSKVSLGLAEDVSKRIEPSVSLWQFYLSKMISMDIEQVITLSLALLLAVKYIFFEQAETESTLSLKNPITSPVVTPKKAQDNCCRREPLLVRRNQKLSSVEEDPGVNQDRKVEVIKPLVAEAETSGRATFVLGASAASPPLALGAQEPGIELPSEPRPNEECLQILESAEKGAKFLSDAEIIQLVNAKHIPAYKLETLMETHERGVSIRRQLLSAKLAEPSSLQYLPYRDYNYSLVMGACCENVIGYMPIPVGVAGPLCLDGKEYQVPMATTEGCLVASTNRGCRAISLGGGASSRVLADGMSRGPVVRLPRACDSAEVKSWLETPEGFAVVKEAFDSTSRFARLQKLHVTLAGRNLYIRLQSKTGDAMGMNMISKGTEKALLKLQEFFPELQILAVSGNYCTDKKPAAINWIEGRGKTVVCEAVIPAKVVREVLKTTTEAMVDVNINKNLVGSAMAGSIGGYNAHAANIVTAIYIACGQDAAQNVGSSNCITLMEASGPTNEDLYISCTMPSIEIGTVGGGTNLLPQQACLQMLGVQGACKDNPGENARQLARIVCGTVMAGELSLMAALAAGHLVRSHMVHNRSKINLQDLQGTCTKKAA
Description: The antihypercholesterolemic activity of each novel compound was measured using the following test. The potency of compactin and each analog as an inhibitor of HMG CoA reductase catalysis was measured with rat liver microsomes. […] Four concentrations of each compound ranging over four appropriate orders of magnitude were tested. The effect on the initial velocity of mevalonate production was determined in a radioactive assay system. […] All components but the ^14 C-HMG CoA were preincubated at 37° C. for 10 min. The inhibitor in 10 μL of DMSO was then added (control samples received DMSO only) and a 15-min. incubation was initiated by the addition of substrate. Catalysis was terminated with 33% aqueous KOH (50 μL). After 30 min., 25 μL of aqueous 0.05% bromophenol, 70000 dpm of (5-^3 H)-mevalono-lactone in 25 μL of H2 O (recovery standard) and 90 μL of 5 N aqueous HCl were added. […] Quantities of collected ^14 C-mevalonate mevalonate were corrected for ^3 -mevalonate recovery before conversion to catalytic rates. Each inhibitor concentration was assayed in triplicate and conversion of (S)-HMG Coenzyme A to product was always less than 20%. Rates in the presence of inhibitors were compared to control rates to generate % inhibition values. When % inhibition was plotted against inhibitor concentration, the resulting curve provided an IC50 value for the inhibitor in question, IC50 being defined as the concentration required to inhibit the enzyme by 50% of control.

Row | Structure (SMILES) | inhibition of the biosynthesis of cholesterol (in words) [1] | inhibition of HMG CoA reductase (in words) (HMG CoA reductase [2]) | IC50 (HMG CoA reductase [3]) | antihypercholesterolemic activity (HMG CoA reductase inhibition, in words) (HMG CoA reductase [3])
1 | CC[C@H](C)C(=O)O[C@H]1CCC=C2C=C[C@H](C)[C@H](CC[C@@H]3C[C@@H](O)CC(=O)O3)[C@H]21 [Formula 1] | potent as inhibitors of the biosynthesis of cholesterol | display utility as inhibitors of the enzyme hydroxymethylglutaryl coenzyme A reductase | 9 nM | –
2 | CC[C@H](C)C(=O)O[C@H]1C[C@@H](C)C=C2C=C[C@H](C)[C@H](CC[C@@H]3C[C@@H](O)CC(=O)O3)[C@H]21 [Formula 2] | potent as inhibitors of the biosynthesis of cholesterol | display utility as inhibitors of the enzyme hydroxymethylglutaryl coenzyme A reductase | – | –
3 | CC[C@H](C)C(=O)O[C@H]1CCC=C2C=C[C@H](C)[C@H](/C=C/C(=O)C[C@@H](O)CC(=O)O)[C@H]21 [Formula 41*] | – | – | 230 nM | possessing antihypercholesterolemic activity
4 | CC[C@H](C)C(=O)O[C@H]1CCC=C2C=C[C@H](C)[C@H](CCC(=O)C[C@@H](O)CC(=O)O)[C@H]21 [Formula 53] | – | – | 16 nM | possessing antihypercholesterolemic activity
5 | CC[C@H](C)C(=O)O[C@H]1CCC=C2C=C[C@H](C)[C@H](COC(=O)C[C@@H](O)CC(=O)O)[C@H]21 [Formula 63*, (1S,2S,8S,8aR)-1-[(S)-(3-Hydroxy-4-carboxybutyryl)oxymethyl]-2-methyl-8-[(S)-(2methylbutyryl)oxy]-1,2,6,7,8a-hexahydronaphthalene] | – | – | 300 nM | possessing antihypercholesterolemic activity
